{"source": "patent US9481676B2", "about": "“Azepino[4,5-B]indoles and methods of use” (Medivation Technologies, Inc., priority 2008, dated 2016)", "key": {"[1]": {"target": "T1, human recombinant adrenergic α1D receptor (Homo sapiens, UniProt P25100)", "T1 construct": "expressed in transfected cells; host or cells: HEK-293 cells", "T1 sequence (P25100 1-572)": "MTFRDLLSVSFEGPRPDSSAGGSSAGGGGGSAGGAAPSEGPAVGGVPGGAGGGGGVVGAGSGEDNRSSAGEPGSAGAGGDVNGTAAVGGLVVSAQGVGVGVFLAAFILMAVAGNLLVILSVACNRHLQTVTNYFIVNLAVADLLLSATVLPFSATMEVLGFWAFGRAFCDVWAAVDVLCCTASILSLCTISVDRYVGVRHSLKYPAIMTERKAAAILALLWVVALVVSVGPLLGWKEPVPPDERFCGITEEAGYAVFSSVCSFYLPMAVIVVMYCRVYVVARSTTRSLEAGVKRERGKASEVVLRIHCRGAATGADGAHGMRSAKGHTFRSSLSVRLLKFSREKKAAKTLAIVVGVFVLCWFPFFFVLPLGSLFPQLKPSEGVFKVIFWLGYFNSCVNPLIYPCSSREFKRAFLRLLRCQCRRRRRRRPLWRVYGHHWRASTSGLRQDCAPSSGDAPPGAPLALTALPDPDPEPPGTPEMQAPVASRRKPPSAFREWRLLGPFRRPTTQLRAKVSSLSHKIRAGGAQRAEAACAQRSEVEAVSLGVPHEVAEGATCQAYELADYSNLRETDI", "test": "Adrenergic alpha1D radioligand binding ([3H]Prozosin)", "conditions": "compound at 1 μM; read-out: Adrenergic (1 μM) α1D, percent inhibition of specific binding", "how_it_was_run": "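Membranes from HEK-293 cells expressing the human receptor in 50 mM Tris-HCl pH 7.4 were incubated 60 min at 25 °C with 0.6 nM [3H]prazosin. Nonspecific binding was defined with 10 μM phentolamine, and bound ligand measured by filtration.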"}, "[2]": {"target": "T2, human recombinant adrenergic α2B receptor (Homo sapiens, UniProt P18089)", "T2 construct": "expressed in transfected cells; host or cells: CHO-K1 cells", "T2 sequence (P18089 1-450)": "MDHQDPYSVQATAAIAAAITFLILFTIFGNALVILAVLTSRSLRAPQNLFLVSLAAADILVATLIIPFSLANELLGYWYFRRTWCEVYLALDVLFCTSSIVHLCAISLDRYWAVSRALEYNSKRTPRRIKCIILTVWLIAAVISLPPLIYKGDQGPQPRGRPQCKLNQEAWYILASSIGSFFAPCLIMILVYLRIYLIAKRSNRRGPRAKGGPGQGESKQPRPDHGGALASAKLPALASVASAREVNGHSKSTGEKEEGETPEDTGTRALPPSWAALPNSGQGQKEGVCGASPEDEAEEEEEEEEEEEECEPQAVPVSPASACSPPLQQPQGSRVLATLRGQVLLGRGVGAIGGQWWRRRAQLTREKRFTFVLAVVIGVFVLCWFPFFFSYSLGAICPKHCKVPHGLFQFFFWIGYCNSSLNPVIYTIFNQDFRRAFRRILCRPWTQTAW", "test": "Adrenergic alpha2B radioligand binding ([3H]Rauwolscine)", "conditions": "compound at 1 μM; read-out: Adrenergic (1 μM) α2B, percent inhibition of specific binding", "how_it_was_run": "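CHO-K1-expressed receptor in Tris-HCl pH 7.4 with MgCl2, EDTA, BSA, incubated 60 min at 25° C with 2.5 nM [3H]Rauwolscine; 10 μM prazosin defines non-specific binding.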"}, "[3]": {"target": "T3, human recombinant serotonin (5-Hydroxytryptamine) 5-HT2A receptor (Homo sapiens, UniProt P28223)", "T3 construct": "expressed in transfected cells; host or cells: CHO-K1 cells", "T3 sequence (P28223 whole entry)": "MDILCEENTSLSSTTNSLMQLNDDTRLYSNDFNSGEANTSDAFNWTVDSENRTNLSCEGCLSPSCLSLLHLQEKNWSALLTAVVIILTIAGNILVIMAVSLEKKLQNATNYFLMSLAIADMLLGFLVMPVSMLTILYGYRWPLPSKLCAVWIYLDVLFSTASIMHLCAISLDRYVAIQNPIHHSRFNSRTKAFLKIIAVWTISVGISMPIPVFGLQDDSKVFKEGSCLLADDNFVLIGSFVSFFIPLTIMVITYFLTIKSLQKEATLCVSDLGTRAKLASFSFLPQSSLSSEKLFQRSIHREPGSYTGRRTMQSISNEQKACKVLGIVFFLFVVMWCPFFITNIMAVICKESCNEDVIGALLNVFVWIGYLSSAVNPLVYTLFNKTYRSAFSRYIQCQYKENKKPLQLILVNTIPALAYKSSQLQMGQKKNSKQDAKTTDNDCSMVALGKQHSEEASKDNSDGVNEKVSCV", "test": "Serotonin 5-HT2A radioligand binding ([3H]Ketanserin)", "conditions": "compound at 1 μM; read-out: Serotonin (1 μM) 5-HT2A, percent inhibition of specific binding", "how_it_was_run": "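Percent inhibition of specific [3H]ketanserin (0.5 nM) binding, filtration read-out, with compounds at ≤1 μM (1% DMSO vehicle). Receptor source: recombinant human 5-HT2A in CHO-K1 cells, 50 mM Tris-HCl pH 7.4, 60 min, 25 °C; 1 μM mianserin gives nonspecific binding.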"}}}
{"smiles": "CN1CCc2c(n(CC(=O)Nc3ccccc3)c3ccc(Cl)cc23)CC1", "note": "[Compound No. 73, 2-(9-chloro-2,3,4,5-tetrahydro-3-methylazepino[4,5-b]indol-6(1H)-yl)-N-phenylacetamide]", "values": [{"measurement": "inhibition at 1 µM", "setting": "[1]", "value": 1, "unit": "%"}, {"measurement": "inhibition at 1 µM", "setting": "[2]", "value": 21, "unit": "%"}, {"measurement": "inhibition at 1 µM", "setting": "[3]", "value": 18, "unit": "%"}]}
{"smiles": "CN1CCc2c(n(CC(=O)N(C)C3CCCCC3)c3ccc(Cl)cc23)CC1", "note": "[Compound No. 74, 2-(9-chloro-2,3,4,5-tetrahydro-3-methylazepino[4,5-b]indol-6(1H)-yl)-N-cyclohexyl-N-methylacetamide]", "values": [{"measurement": "inhibition at 1 µM", "setting": "[1]", "value": 17, "unit": "%"}, {"measurement": "inhibition at 1 µM", "setting": "[2]", "value": 27, "unit": "%"}, {"measurement": "inhibition at 1 µM", "setting": "[3]", "value": 27, "unit": "%"}]}
{"smiles": "CN1CCc2c(n(CC(=O)OCc3ccccc3)c3ccc(Cl)cc23)CC1", "note": "[Compound No. 75, Benzyl-2-(9-chloro-2,3,4,5-tetrahydro-3-methylazepino[4,5-b]indol-6(1H)-yl)acetate]", "values": [{"measurement": "inhibition at 1 µM", "setting": "[1]", "value": 7, "unit": "%"}, {"measurement": "inhibition at 1 µM", "setting": "[2]", "value": 21, "unit": "%"}, {"measurement": "inhibition at 1 µM", "setting": "[3]", "value": 34, "unit": "%"}]}
{"smiles": "Cc1ccc2c(c1)c1c(n2/C=C/c2ccccc2)CCN(C)CC1", "note": "[Compound No. 229, (E)-3,9-dimethyl-6-styryl-1,2,3,4,5,6-hexahydroazepino[4,5-b]indole]", "values": [{"measurement": "inhibition at 1 µM", "setting": "[1]", "value": 97, "unit": "%"}, {"measurement": "inhibition at 1 µM", "setting": "[2]", "value": 103, "unit": "%"}, {"measurement": "inhibition at 1 µM", "setting": "[3]", "value": 100, "unit": "%"}]}
{"smiles": "COc1ccc(/C=C/n2c3c(c4cc(C)ccc42)CCN(C)CC3)c(F)c1", "note": "[Compound No. 230, (E)-6-(2-fluoro-4-methoxystyryl)-3,9-dimethyl-1,2,3,4,5,6-hexahydroazepino[4,5-b]indole]", "values": [{"measurement": "inhibition at 1 µM", "setting": "[1]", "value": 97, "unit": "%"}, {"measurement": "inhibition at 1 µM", "setting": "[2]", "value": 99, "unit": "%"}, {"measurement": "inhibition at 1 µM", "setting": "[3]", "value": 97, "unit": "%"}]}
{"smiles": "Cc1ccc2c(c1)c1c(n2CC(=O)N(C)C2CCCCC2)CCN(C)CC1", "note": "[Compound No. 232, N-cyclohexyl-2-(3,9-dimethyl-2,3,4,5-tetrahydroazepino[4,5-b]indol-6(1H)-yl)-N-methylacetamide]", "values": [{"measurement": "inhibition at 1 µM", "setting": "[1]", "value": 29, "unit": "%"}, {"measurement": "inhibition at 1 µM", "setting": "[2]", "value": 39, "unit": "%"}, {"measurement": "inhibition at 1 µM", "setting": "[3]", "value": 70, "unit": "%"}]}
{"smiles": "Cc1ccc2c(c1)c1c(n2/C=C/c2ccccc2F)CCN(C)CC1", "note": "[Compound No. 233, (E)-6-(2-fluorostyryl)-3,9-dimethyl-1,2,3,4,5,6-hexahydroazepino[4,5-b]indole]", "values": [{"measurement": "inhibition at 1 µM", "setting": "[1]", "value": 96, "unit": "%"}, {"measurement": "inhibition at 1 µM", "setting": "[2]", "value": 100, "unit": "%"}, {"measurement": "inhibition at 1 µM", "setting": "[3]", "value": 102, "unit": "%"}]}
{"smiles": "CN1CCc2c(n(/C=C/c3ccc(F)cc3)c3ccc(Cl)cc23)CC1", "note": "[Compound No. 234, (E)-9-chloro-6-(4-fluorostyryl)-3-methyl-1,2,3,4,5,6-hexahydroazepino[4,5-b]indole]", "values": [{"measurement": "inhibition at 1 µM", "setting": "[1]", "value": 97, "unit": "%"}, {"measurement": "inhibition at 1 µM", "setting": "[2]", "value": 100, "unit": "%"}, {"measurement": "inhibition at 1 µM", "setting": "[3]", "value": 101, "unit": "%"}]}
{"smiles": "Cc1ccc2c(c1)c1c(n2/C=C/c2ccc(Cl)cc2)CCN(C)CC1", "note": "[Compound No. 235, (E)-6-(4-chlorostyryl)-3,9-dimethyl-1,2,3,4,5,6-hexahydroazepino[4,5-b]indole]", "values": [{"measurement": "inhibition at 1 µM", "setting": "[1]", "value": 95, "unit": "%"}, {"measurement": "inhibition at 1 µM", "setting": "[2]", "value": 98, "unit": "%"}, {"measurement": "inhibition at 1 µM", "setting": "[3]", "value": 102, "unit": "%"}]}
{"smiles": "CN1CCc2c(n(/C=C/c3ccc(F)c(F)c3)c3ccc(Cl)cc23)CC1", "note": "[Compound No. 236, (E)-9-chloro-6-(3,4-difluorostyryl)-3-methyl-1,2,3,4,5,6-hexahydroazepino[4,5-b]indole]", "values": [{"measurement": "inhibition at 1 µM", "setting": "[1]", "value": 94, "unit": "%"}, {"measurement": "inhibition at 1 µM", "setting": "[2]", "value": 103, "unit": "%"}, {"measurement": "inhibition at 1 µM", "setting": "[3]", "value": 101, "unit": "%"}]}
{"smiles": "CN1CCc2c(n(CCc3ccccc3F)c3ccccc23)CC1", "note": "[Compound No. 237, 6-(2-fluorophenethyl)-3-methyl-1,2,3,4,5,6-hexahydroazepino[4,5-b]indole]", "values": [{"measurement": "inhibition at 1 µM", "setting": "[1]", "value": 70, "unit": "%"}, {"measurement": "inhibition at 1 µM", "setting": "[2]", "value": 93, "unit": "%"}, {"measurement": "inhibition at 1 µM", "setting": "[3]", "value": 99, "unit": "%"}]}
{"smiles": "C/C(=C\\n1c2c(c3cc(C)ccc31)CCN(C)CC2)c1ccc(Cl)cc1Cl", "note": "[Compound No. 238, (E)-6-(2-(2,4-dichlorophenyl)prop-1-enyl)-3,9-dimethyl-1,2,3,4,5,6-hexahydroazepino[4,5-b]indole]", "values": [{"measurement": "inhibition at 1 µM", "setting": "[1]", "value": 30, "unit": "%"}, {"measurement": "inhibition at 1 µM", "setting": "[2]", "value": 103, "unit": "%"}, {"measurement": "inhibition at 1 µM", "setting": "[3]", "value": 103, "unit": "%"}]}
